Target: T1, human mAChR M1 (Homo sapiens, UniProt P11229)
T1 sequence (P11229 1-460): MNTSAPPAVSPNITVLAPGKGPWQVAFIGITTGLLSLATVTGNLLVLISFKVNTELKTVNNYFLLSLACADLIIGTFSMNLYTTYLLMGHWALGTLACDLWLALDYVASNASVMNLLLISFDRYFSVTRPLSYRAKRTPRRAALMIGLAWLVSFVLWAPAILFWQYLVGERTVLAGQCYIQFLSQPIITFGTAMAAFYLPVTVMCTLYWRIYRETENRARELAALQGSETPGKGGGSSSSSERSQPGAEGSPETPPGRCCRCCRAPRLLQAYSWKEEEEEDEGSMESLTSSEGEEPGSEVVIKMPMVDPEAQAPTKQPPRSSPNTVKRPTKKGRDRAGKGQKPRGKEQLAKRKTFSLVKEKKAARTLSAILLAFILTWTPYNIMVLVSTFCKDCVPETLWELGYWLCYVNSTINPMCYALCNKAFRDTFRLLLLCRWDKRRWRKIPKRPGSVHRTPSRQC
Test: mAChR M1 cell-based functional assay: calcium mobilization, positive allosteric modulator mode (increase in EC20 acetylcholine response)
Conditions: Table 2, human M1; for EC50: read-out: Human M1 EC50; for Emax: read-out: Human M1 Emax (%)
How it was run: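 PAM potency reflects the concentration-dependent increase in calcium response to an EC20 acetylcholine challenge, given 144 s into a 300 s read after compound addition at 4 s (EC80 follows at 230 s). Cells were hM1-expressing CHO-K1, loaded 50 min with Fluo-4 AM. Curves used 11 points at 1:3 dilutions and four-parameter logistic fitting.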

Row | Compound | EC50 [nM] | Emax [%]
1 | CC1(NC(=O)c2cc(Cc3ccc(-n4cccn4)cc3)c3sccc3n2)COC1 [Compound 276, N-(3-methyloxetan-3-yl)-7-[(4-pyrazol-1-ylphenyl)methyl]thieno[3,2-b]pyridine-5-carboxamide] | 5500 | 64.5
2 | O=C(N[C@@H]1CCOC1)c1cc(Cc2ccc(-n3cccn3)cc2)c2sccc2n1 [Compound 277, 7-[(4-pyrazol-1-ylphenyl)methyl]-N-[(3R)-tetrahydrofuran-3-yl]thieno[3,2-b]pyridine-5-carboxamide] | 627 | 67.9
3 | O=C(N[C@H]1CCOC1)c1cc(Cc2ccc(-n3cccn3)cc2)c2sccc2n1 [Compound 278, 7-[(4-pyrazol-1-ylphenyl)methyl]-N-[(3S)-tetrahydrofuran-3-yl]thieno[3,2-b]pyridine-5-carboxamide] | 485 | 73.4
4 | O=C(NC1COC1)c1cc(Cc2ccc(-n3cccn3)cc2)c2sccc2n1 [Compound 279, N-(oxetan-3-yl)-7-[(4-pyrazol-1-ylphenyl)methyl]thieno[3,2-b]pyridine-5-carboxamide] | 1050 | 68.7
5 | N#CC1(NC(=O)c2cc(Cc3ccc(-n4cccn4)cc3)c3sccc3n2)CC1 [Compound 282, N-(1-cyanocyclopropyl)-7-[(4-pyrazol-1-ylphenyl)methyl]thieno[3,2-b]pyridine-5-carboxamide] | 601 | 40
6 | CC(C)(C#N)NC(=O)c1cc(Cc2ccc(-n3cccn3)cc2)c2sccc2n1 [Compound 283, N-(1-cyano-1-methyl-ethyl)-7-[(4-pyrazol-1-ylphenyl)methyl]thieno[3,2-b]pyridine-5-carboxamide] | > 10000 | 43.1
7 | O=C(NCC1CCCCO1)c1cc(Cc2ccc(-n3cccn3)cc2)c2sccc2n1 (stereo not shown) [Compound 289, 7-[(4-pyrazol-1-ylphenyl)methyl]-N-(tetrahydropyran-2-ylmethyl)thieno[3,2-b]pyridine-5-carboxamide] | 1160 | 80.7
8 | O=C(N[C@H]1CCCNC1)c1cc(Cc2ccc(-n3cccn3)cc2)c2sccc2n1 [Compound 290, N-[(3S)-3-piperidyl]-7-[(4-pyrazol-1-ylphenyl)methyl]thieno[3,2-b]pyridine-5-carboxamide] | 5340 | 65.3
9 | CC1(NC(=O)c2cc(Cc3ccc(-n4cccn4)cc3)c3sccc3n2)CCCNC1 (stereo not shown) [Compound 291, N-(3-methyl-3-piperidyl)-7-[(4-pyrazol-1-ylphenyl)methyl]thieno[3,2-b]pyridine-5-carboxamide] | 1120 | 64.3
10 | O=C(NCC1CCOCC1)c1cc(Cc2ccc(-c3nccs3)cc2)c2sccc2n1 [Compound 298, N-(tetrahydropyran-4-ylmethyl)-7-[(4-thiazol-2-ylphenyl)methyl]thieno[3,2-b]pyridine-5-carboxamide] | 368 | 45.5
11 | Cc1nc(-c2ccc(Cc3cc(C(=O)NC4CC(C)OC(C)C4)nc4ccsc34)cc2)co1 (stereo not shown) [Compound 299, N-(2,6-dimethyltetrahydropyran-4-yl)-7-[[4-(2-methyloxazol-4-yl)phenyl]methyl]thieno[3,2-b]pyridine-5-carboxamide] | 702 | 75
12 | Cc1csc2c(Cc3ccc(-c4ccn(C)n4)cc3)cc(C(=O)NC3CCOCC3)nc12 [Compound 302, 3-methyl-7-[[4-(1-methylpyrazol-3-yl)phenyl]methyl]-N-tetrahydropyran-4-yl-thieno[3,2-b]pyridine-5-carboxamide] | 405 | 69.9
13 | Cc1csc2c(Cc3ccc(-c4ccn(C)n4)cc3)cc(C(=O)N[C@H]3CCC[C@@H]3O)nc12 [Compound 303, N-[(1S,2S)-2-hydroxycyclopentyl]-3-methyl-7-[[4-(1-methylpyrazol-3-yl)phenyl]methyl]thieno[3,2-b]pyridine-5-carboxamide] | 366 | 70.7
14 | Cc1csc2c(Cc3ccc(-c4ccn(C)n4)cc3)cc(C(=O)NC3CC4(COC4)C3)nc12 [Compound 304, 3-methyl-7-[[4-(1-methylpyrazol-3-yl)phenyl]methyl]-N-(2-oxaspiro[3.3]heptan-6-yl)thieno[3,2-b]pyridine-5-carboxamide] | 568 | 72.3
15 | Cc1csc2c(Cc3ccc(-c4ccn(C)n4)cc3)cc(C(=O)N[C@@H]3CCOC3)nc12 [Compound 305, 3-methyl-7-[[4-(1-methylpyrazol-3-yl)phenyl]methyl]-N-[(3R)-tetrahydrofuran-3-yl]thieno[3,2-b]pyridine-5-carboxamide] | 2850 | 76.3
16 | Cc1csc2c(Cc3ccc(-c4ccn(C)n4)cc3)cc(C(=O)N[C@H]3CCOC3)nc12 [Compound 306] | 2920 | 79.3
17 | Cc1csc2c(Cc3ccc(-c4ccn(C)n4)cc3)cc(C(=O)NC3COC3)nc12 [Compound 307, 3-methyl-7-[[4-(1-methylpyrazol-3-yl)phenyl]methyl]-N-(oxetan-3-yl)thieno[3,2-b]pyridine-5-carboxamide] | 3440 | 67.2
18 | Cc1csc2c(Cc3ccc(-c4ccn(C)n4)cc3)cc(C(=O)NC3CC(F)C3)nc12 (stereo not shown) [Compound 308, N-(3-fluorocyclobutyl)-3-methyl-7-[[4-(1-methylpyrazol-3-yl)phenyl]methyl]thieno[3,2-b]pyridine-5-carboxamide] | 5360 | 62.1

These reach a lower EC50. Values come first.

Row | EC50 [nM] | Emax [%] | Compound
19 | 297 | 71.8 | O=C(NC1CC(F)C1)c1cc(Cc2ccc(-n3cccn3)cc2)c2sccc2n1 (stereo not shown) [Compound 280, N-(3-fluorocyclobutyl)-7-[(4-pyrazol-1-ylphenyl)methyl]thieno[3,2-b]pyridine-5-carboxamide]
20 | 273 | 79.9 | O=C(NC1CCOCC1)c1cc(Cc2ccc(-c3nccs3)cc2)c2sccc2n1 [Compound 296]
21 | 256 | 55 | O=C(NC1CC(F)(F)C1)c1cc(Cc2ccc(-n3cccn3)cc2)c2sccc2n1 [Compound 281, N-(3,3-difluorocyclobutyl)-7-[(4-pyrazol-1-ylphenyl)methyl]thieno[3,2-b]pyridine-5-carboxamide]
22 | 225 | 81.8 | O=C(NCC1CCN1)c1cc(Cc2ccc(-n3cccn3)cc2)c2sccc2n1 (stereo not shown) [Compound 292, N-(azetidin-2-ylmethyl)-7-[(4-pyrazol-1-ylphenyl)methyl]thieno[3,2-b]pyridine-5-carboxamide]
23 | 225 | 76.4 | O=C(N[C@H]1CC[C@@H]1O)c1cc(Cc2ccc(-c3nccs3)cc2)c2sccc2n1 [Compound 297, N-[(1S,2S)-2-hydroxycyclobutyl]-7-[(4-thiazol-2-ylphenyl)methyl]thieno[3,2-b]pyridine-5-carboxamide]
24 | 225 | 75.3 | Cc1nc(-c2ccc(Cc3cc(C(=O)NC4CCOC(C)(C)C4)nc4ccsc34)cc2)co1 (stereo not shown) [Compound 300, N-(2,2-dimethyltetrahydropyran-4-yl)-7-[[4-(2-methyloxazol-4-yl)phenyl]methyl]thieno[3,2-b]pyridine-5-carboxamide]
25 | 203 | 69.3 | O=C(NC[C@@H]1CCCO1)c1cc(Cc2ccc(-n3cccn3)cc2)c2sccc2n1 [Compound 286, 7-[(4-pyrazol-1-ylphenyl)methyl]-N-[[(2S)-tetrahydrofuran-2-yl]methyl]thieno[3,2-b]pyridine-5-carboxamide]
26 | 97.4 | 74.4 | O=C(NCC1CCOCC1)c1cc(Cc2ccc(-n3cccn3)cc2)c2sccc2n1 [Compound 288, 7-[(4-pyrazol-1-ylphenyl)methyl]-N-(tetrahydropyran-4-ylmethyl)thieno[3,2-b]pyridine-5-carboxamide]
27 | 95.3 | 64.3 | O=C(NCC1CCOC1)c1cc(Cc2ccc(-n3cccn3)cc2)c2sccc2n1 (stereo not shown) [Compound 285, 7-[(4-pyrazol-1-ylphenyl)methyl]-N-(tetrahydrofuran-3-ylmethyl)thieno[3,2-b]pyridine-5-carboxamide]
28 | 67.7 | 66.9 | O=C(NCC1CCO1)c1cc(Cc2ccc(-n3cccn3)cc2)c2sccc2n1 (stereo not shown) [Compound 284, N-(oxetan-2-ylmethyl)-7-[(4-pyrazol-1-ylphenyl)methyl]thieno[3,2-b]pyridine-5-carboxamide]
29 | 49.4 | 64.9 | O=C(NC[C@H]1CCCO1)c1cc(Cc2ccc(-n3cccn3)cc2)c2sccc2n1 [Compound 287, 7-[(4-pyrazol-1-ylphenyl)methyl]-N-[[(2R)-tetrahydrofuran-2-yl]methyl]thieno[3,2-b]pyridine-5-carboxamide]
30 | 43 | 69.9 | O=C(NC1CC2(COC2)C1)c1cc(Cc2ccc(-n3cccn3)cc2)c2sccc2n1 [Compound 275, N-(2-oxaspiro[3.3]heptan-6-yl)-7-[(4-pyrazol-1-ylphenyl)methyl]thieno[3,2-b]pyridine-5-carboxamide]
31 | 15.7 | 71.1 | O=C(N[C@H]1CCOC[C@@H]1O)c1cc(Cc2ccc(-c3nccs3)cc2)c2sccc2n1 [Compound 294]
32 | 6 | 61.6 | O=C(N[C@H]1CCOC[C@@H]1O)c1cc(Cc2ccc(-n3cccn3)cc2)c2sccc2n1 [Compound 293, N-[(3R,4S)-3-hydroxytetrahydropyran-4-yl]-7-[(4-pyrazol-1-ylphenyl)methyl]thieno[3,2-b]pyridine-5-carboxamide]
